The EC50 is the concentration needed to bring the measured effect to its halfway point. A low value points to an effect from little substance. As usually defined, the IC50 is the midpoint of a concentration-inhibition curve. Read a high IC50 as weaker potency in that assay. As usually defined, the Kd is the equilibrium constant for the complex coming apart.

These results are taken from US20240018151A1, “NOVEL INHIBITORS OF PIKFYVE AND METHODS USING SAME” (priority 2020, published 2024).

Read-outs that look alike come from different tables or passages of the source.

For data set [1], the target named is T1, PIKFYVE (Homo sapiens (Human), UniProt Q9Y2I7). The data set can be described thus: KINOMEScan Kinase Assay, PIKFYVE binding. The conditions noted are these: for % Inhib. (50 nM): 50 nM compound; for inhibition at 0.05 µM: read-out: % Inhib. (50 nM).
The nature of a further data set: in vitro. The conditions noted are these: hamster.
Data set [2] concerns SARS-CoV-2 spike pseudovirus in BHK21/hACE2 cells. The data set can be described thus: microbe, parasite or virus in culture. Type of data set: cell-based. The conditions noted are these: Severe acute respiratory syndrome coronavirus 2, BHK-21.
In data set [3] the target is T1, PIKFYVE. The data set can be described thus: ADP-GLO Kinase Assay, PIKFYVE inhibitory activity. Type of data set: biochemical. The conditions noted are these: substrate PI3P 10,000 nM. The method, then:
Briefly, 4× compound solution and 4×ATP solution are prepared with assay buffer (50 mM MOPS, 1 mM DTT, pH7.2). 4× Substrate solution and 4× kinase/Metal solution are prepared with MOPS based buffer containing individual kinase specific additives. Then, […] of 4× compound solution, 5 μL of 4× Substrate solution, 5 μL of 4×ATP solution, and 5 μL of 4× kinase/Metal solution are mixed and incubated in a well of polystyrene 384 well black microplate for 1 hour at room temperature. Next, 20 μL of ADP-Glo™ Reagent (Promega) is added to the well, and incubated for over 40 minutes. 40 μL of Kinase Detection Reagent (Promega) is added to the well, and incubated for over 40 minutes. The kinase reaction is evaluated by the endpoint luminescence of the well.
For measurement of PIKFYVE activity, the substrate is PI3P at 10,000 nM concentration, using AG-182 as a positive control. The metal used is magnesium at 5 mM concentration.
(ADP-Glo turns the ADP formed in a reaction into a luminescent signal.)

Data set [4] can be described thus: Cytotoxicity (CC50) in Influenza A assay. The data set is classed as cell-based. The conditions noted are these: dog; Influenza A IFA Assay; MDCK cells. As to the method:
Influenza A IFA: Test compounds are solubilized in DMSO to prepare 20 mg/mL stock solutions. Compounds are then serially diluted using eight half-log dilutions in test media so that the starting (high) test concentration is 100 μg/mL. Each dilution is added to 5 wells of a 96-well plate with 80-100% confluent MDCK cells. Three wells of each dilution are infected with virus (strain influenza A strain California/07/09 (H1N1) pdm09), and two wells remain uninfected as toxicity controls. As virus controls, six wells are infected but untreated, and as cell controls, six wells are uninfected and untreated. Each virus is prepared to achieve an MOI (multiplicity of infection) of 0.001. A positive control compound is tested in parallel. Plates are incubated at 37° C. under 5% CO2 atmosphere. On day 3 post-infection (once untreated virus control cells reached maximum cytopathic effect, CPE), plates are stained with neutral red dye for 2 hours. Supernatant dye is removed and the wells are rinsed with PBS. The incorporated dye is extracted using 50:50 Sorensen citrate buffer/ethanol for at least 30 minutes, and the optical density is read at […] on a spectrophotometer. […] The selectivity index (SI) is calculated as CC50 divided by EC50. […]

Data set [5] relates to influenza A strain California/07/09 (H1N1) pdm09 in MDCK cells. The data set can be described thus: Influenza A IFA assay (CPE inhibition, neutral red). The settings on record: Influenza A virus. The data set is classed as cell-based.
In the next data set the test system is SARS-CoV-2 in Vero cells. The data set can be described thus: SARS-CoV-2 immunofluorescence assay (IFA). Type of data set: cell-based. The conditions noted are these: Severe acute respiratory syndrome coronavirus 2, SARS-CoV2 IFA Assay.
Data set [6] is described as follows: Cytotoxicity (CC50) in SARS-CoV-2 IFA. Type of data set: cell-based. The settings on record: African green monkey; SARS-CoV2 IFA Assay; Vero cells. As to the method:
SARS-CoV-2 IFA: In 384-well plates, Vero cells re seeded at an appropriate density and cultured at 37° C. and 5% CO2. Serially diluted (10 concentrations, in duplicates) test/reference compounds are added. Then the cells are infected with virus. The resulting cultures are incubated for an additional 1 day. The cells are then fixed and analyzed by immunofluorescence. EC50 and CC50 values are calculated with GraphPad Prism software.

T1 sequence (Q9Y2I7 whole entry): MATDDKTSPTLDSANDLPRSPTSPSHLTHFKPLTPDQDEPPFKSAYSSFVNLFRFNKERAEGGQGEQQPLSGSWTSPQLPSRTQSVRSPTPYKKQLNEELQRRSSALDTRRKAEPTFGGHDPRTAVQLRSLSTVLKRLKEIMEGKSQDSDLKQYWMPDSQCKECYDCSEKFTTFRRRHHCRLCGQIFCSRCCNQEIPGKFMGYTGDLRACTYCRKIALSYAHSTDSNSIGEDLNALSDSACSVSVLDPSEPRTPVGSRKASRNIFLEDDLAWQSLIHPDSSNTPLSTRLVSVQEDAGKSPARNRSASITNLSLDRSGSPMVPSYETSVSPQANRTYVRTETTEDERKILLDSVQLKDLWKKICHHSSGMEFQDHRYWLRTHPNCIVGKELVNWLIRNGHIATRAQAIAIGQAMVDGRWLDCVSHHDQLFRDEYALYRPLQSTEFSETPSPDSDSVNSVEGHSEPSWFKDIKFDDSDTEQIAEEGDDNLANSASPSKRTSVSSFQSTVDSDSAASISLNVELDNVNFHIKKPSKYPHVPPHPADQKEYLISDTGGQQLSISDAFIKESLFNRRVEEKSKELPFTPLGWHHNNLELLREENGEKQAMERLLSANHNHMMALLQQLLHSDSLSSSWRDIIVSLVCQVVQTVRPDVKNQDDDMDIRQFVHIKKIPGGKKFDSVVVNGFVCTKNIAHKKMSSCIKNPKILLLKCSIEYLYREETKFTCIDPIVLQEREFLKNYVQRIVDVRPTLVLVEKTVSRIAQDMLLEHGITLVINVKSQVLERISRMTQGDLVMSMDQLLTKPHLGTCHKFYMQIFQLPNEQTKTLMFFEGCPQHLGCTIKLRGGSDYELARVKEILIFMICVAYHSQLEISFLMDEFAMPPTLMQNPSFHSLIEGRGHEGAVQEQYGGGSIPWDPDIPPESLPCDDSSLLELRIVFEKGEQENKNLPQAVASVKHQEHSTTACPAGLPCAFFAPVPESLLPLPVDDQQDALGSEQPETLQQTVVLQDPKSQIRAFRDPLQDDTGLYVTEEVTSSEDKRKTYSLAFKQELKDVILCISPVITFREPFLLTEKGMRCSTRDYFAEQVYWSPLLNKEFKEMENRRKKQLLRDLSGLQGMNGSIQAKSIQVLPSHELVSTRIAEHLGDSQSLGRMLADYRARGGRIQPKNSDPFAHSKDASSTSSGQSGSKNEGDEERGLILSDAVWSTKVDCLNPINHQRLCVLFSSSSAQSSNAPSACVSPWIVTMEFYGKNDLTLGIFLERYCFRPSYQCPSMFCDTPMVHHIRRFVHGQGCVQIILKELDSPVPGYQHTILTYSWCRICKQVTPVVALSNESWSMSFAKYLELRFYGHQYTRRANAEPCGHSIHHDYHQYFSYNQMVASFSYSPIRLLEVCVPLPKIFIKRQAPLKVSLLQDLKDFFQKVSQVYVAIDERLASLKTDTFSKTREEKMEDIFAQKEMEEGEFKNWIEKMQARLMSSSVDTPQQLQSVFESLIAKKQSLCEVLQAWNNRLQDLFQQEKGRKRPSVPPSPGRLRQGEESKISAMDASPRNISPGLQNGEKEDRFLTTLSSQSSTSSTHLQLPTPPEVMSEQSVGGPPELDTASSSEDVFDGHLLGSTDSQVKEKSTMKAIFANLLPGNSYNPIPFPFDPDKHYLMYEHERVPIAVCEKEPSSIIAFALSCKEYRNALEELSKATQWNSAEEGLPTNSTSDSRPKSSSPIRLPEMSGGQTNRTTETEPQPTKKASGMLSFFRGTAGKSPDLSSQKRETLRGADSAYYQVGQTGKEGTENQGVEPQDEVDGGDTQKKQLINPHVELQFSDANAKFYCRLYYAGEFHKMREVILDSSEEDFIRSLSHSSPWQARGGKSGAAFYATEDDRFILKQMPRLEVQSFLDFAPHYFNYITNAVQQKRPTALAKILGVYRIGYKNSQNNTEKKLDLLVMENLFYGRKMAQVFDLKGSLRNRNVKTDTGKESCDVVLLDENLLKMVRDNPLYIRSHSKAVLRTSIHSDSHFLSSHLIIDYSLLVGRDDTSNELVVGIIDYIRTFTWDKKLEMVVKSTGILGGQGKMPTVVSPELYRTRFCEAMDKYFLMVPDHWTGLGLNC

Take “4-(2-(pyridin-4-yl)-5-(3-(3-(trifluoromethyl)phenyl)-1H-pyrazol-1-yl)pyrazolo[1,5-a]pyrimidin-7-yl)morpholine [Ex. 21]”: the “% Inhib. (50 nM)” value at PIKFYVE [1] (KINOMEScan Kinase Assay) is on record as “++ (>50%-80%)”.

In “in vitro”, `Cc1cccc(/C=N/Nc2cc(N3CCOCC3)nc(OCCc3ccccn3)n2)c1` [Apilimod, reference compound] had a CC50 of 8 µM. In data set [2], this molecule had an EC50 of less than 0.01 µM.

In the data set “in vitro”, `CCN(CC)CCCC(C)Nc1ccnc2cc(Cl)ccc12` (centres unmarked) [Chloroquine, chloroquine, reference compound] yielded a CC50 of 35 µM. This molecule also registered an EC50 in data set [2] of 6 µM.

As to `Fc1cccc(-c2ccn(-c3cc(N4CCOCC4)n4nc(-c5ccncc5)cc4n3)n2)c1` [Ex. 2], the inhibition at 0.05 µM at PIKFYVE [1] was 50 to 80%. The IC50 on PIKFYVE [3] is less than 0.05 µM.

`Brc1cccc(-c2ccn(-c3cc(N4CCOCC4)n4nc(-c5ccncc5)cc4n3)n2)c1` [Ex. 3]: the CC50 in data set [4] is more than 20 µM; in “in vitro” it was more than 10 µM. Further, the concentration for a half-maximal effect (EC50) in data set [5] was 5 to 10 µM; with SARS-CoV-2 in Vero cells, 1 to 5 µM; in data set [2], less than 0.01 µM. In addition, the inhibition at 0.05 µM at PIKFYVE [1] lay in the range of 80 to 100%. In data set [6], this molecule yielded a CC50 at 1 day of more than 20 µM.

Take `N#Cc1cccc(-c2ccn(-c3cc(N4CCOCC4)n4nc(-c5ccncc5)cc4n3)n2)c1` [Ex. 4]: the inhibition at 0.05 µM on PIKFYVE [1] was 50 to 80%. Moreover, on PIKFYVE [3], the 50% inhibitory concentration (IC50) was less than 0.05 µM.

On to `CC(C)(C)c1ccn(-c2cc(N3CCOCC3)n3nc(-c4ccncc4)cc3n2)n1` [Ex. 5], for which the inhibition at 0.05 µM on PIKFYVE [1] is less than 50%. This molecule showed an IC50 at PIKFYVE [3] of more than 1 µM.

In the case of `Cc1ccccc1-c1ccn(-c2cc(N3CCOCC3)n3nc(-c4ccncc4)cc3n2)n1` [Ex. 7], on PIKFYVE [1], the inhibition at 0.05 µM is less than 50%. The molecule also registered a concentration for half-maximal inhibition (IC50) on PIKFYVE [3] of 0.05 to 1 µM.

Consider `Fc1ccccc1-c1ccn(-c2cc(N3CCOCC3)n3nc(-c4ccncc4)cc3n2)n1` [Ex. 8], for which the inhibition at 0.05 µM on PIKFYVE [1] was 50 to 80%. This molecule also registered an IC50 on PIKFYVE [3] of less than 0.05 µM.

For the molecule `Fc1ccc(-c2ccn(-c3cc(N4CCOCC4)n4nc(-c5ccncc5)cc4n3)n2)cc1` [Ex. 9], the inhibition at 0.05 µM on PIKFYVE [1] lay within 50 to 80%. For the same molecule, the IC50 against PIKFYVE [3] was less than 0.05 µM.

`FC(F)(F)c1ccc(-c2ccn(-c3cc(N4CCOCC4)n4nc(-c5ccncc5)cc4n3)n2)cc1` [Ex. 10]: the inhibition at 0.05 µM on PIKFYVE [1] is less than 50%. The same molecule had an IC50 on PIKFYVE [3] of more than 1 µM.

At PIKFYVE [1] (KINOMEScan Kinase Assay), `COc1cccc(-c2ccn(-c3cc(N4CCO[C@H](C)C4)n4nc(-c5ccncc5)cc4n3)n2)c1` [Ex. 11] yielded a Kd of 0.005 to 0.01 µM.

For the molecule `COc1cccc(-c2ccn(-c3cc(N4CCO[C@@H](C)C4)n4nc(-c5ccncc5)cc4n3)n2)c1` [Ex. 12], the “% Inhib. (50 nM)” value on PIKFYVE [1] (KINOMEScan Kinase Assay) is “+++ (>80%-100%)”.

As for `COc1cccc(-c2ccn(-c3cc(N4CCOC[C@@H]4C)n4nc(-c5ccncc5)cc4n3)n2)c1` [Ex. 13], the “% Inhib. (50 nM)” value on PIKFYVE [1] (KINOMEScan Kinase Assay) is “+++ (>80%-100%)”.

`COc1cccc(-c2ccn(-c3cc(N4CCOC[C@H]4C)n4nc(-c5ccncc5)cc4n3)n2)c1` [Ex. 14] displayed a Kd at PIKFYVE [1] (KINOMEScan Kinase Assay) of 0.005 to 0.01 µM.

`COc1cccc(-c2ccn(-c3cc(N4CCOCC4)n4nc(-c5ccncc5)cc4n3)n2)c1` [Ex. 15] had a Kd on PIKFYVE [1] (KINOMEScan Kinase Assay) of 0.001 to 0.005 µM.

Molecule `Cc1cccc(-c2ccn(-c3cc(N4CCOCC4)n4nc(-c5ccncc5)cc4n3)n2)c1` [Ex. 17] registered a Kd on PIKFYVE [1] (KINOMEScan Kinase Assay) of less than 0.001 µM.

At PIKFYVE [1], `[O-][n+]1ccc(-c2cc3nc(-n4ccc(-c5cccc(Br)c5)n4)cc(N4CCOCC4)n3n2)cc1` [Ex. 18, 4-(5-(3-(3-bromophenyl)-1H-pyrazol-1-yl)-7-morpholinopyrazolo[1,5-a]pyrimidin-2-yl)pyridine 1-oxide] yielded a Kd of less than 0.001 µM.

Take `FC(F)(F)Oc1cccc(-c2ccn(-c3cc(N4CCOCC4)n4nc(-c5ccncc5)cc4n3)n2)c1` [Ex. 22, 4-(2-(pyridin-4-yl)-5-(3-(3-(trifluoromethoxy)phenyl)-1H-pyrazol-1-yl)pyrazolo[1,5-a]pyrimidin-7-yl)morpholine]: the inhibition at 0.05 µM at PIKFYVE [1] is less than 50%.

Consider `CCOc1cccc(-c2ccn(-c3cc(N4CCOCC4)n4nc(-c5ccncc5)cc4n3)n2)c1` [Ex. 23, 4-(5-(3-(3-ethoxyphenyl)-1H-pyrazol-1-yl)-2-(pyridin-4-yl)pyrazolo[1,5-a]pyrimidin-7-yl)morpholine], for which, on PIKFYVE [1], the inhibition at 0.05 µM is less than 50%.

In turn, `Cc1cccc(-c2ccn(-c3cc(N4CCOCC4)n4nc(Br)cc4n3)n2)c1` [Ex. 24, 4-(2-bromo-5-(3-(m-tolyl)-1H-pyrazol-1-yl)pyrazolo[1,5-a]pyrimidin-7-yl)morpholine] came in with a Kd on PIKFYVE [1] of 0.001 to 0.005 µM.

`Cc1cccc(-c2ccn(-c3cc(N4CCOCC4)n4nc(-c5ccnnc5)cc4n3)n2)c1` [Ex. 25, 4-(2-(pyridazin-4-yl)-5-(3-(m-tolyl)-1H-pyrazol-1-yl)pyrazolo[1,5-a]pyrimidin-7-yl)morpholine] yielded a Kd on PIKFYVE [1] of less than 0.001 µM.

`Cc1cccc(-c2ccn(-c3cc(N4CCOCC4)n4nc(C5=CCN(C(=O)OC(C)(C)C)CC5)cc4n3)n2)c1` [Ex. 26, tert-butyl4-(7-morpholino-5-(3-(m-tolyl)-1H-pyrazol-1-yl)pyrazolo[1,5-a]pyrimidin-2-yl)-3,6-dihydropyridine-1(2H)-carboxylate]: the inhibition at 0.05 µM at PIKFYVE [1] lay in the range of 80 to 100%.

As to `C=Cc1cc2nc(-n3ccc(-c4cccc(C)c4)n3)cc(N3CCOCC3)n2n1` [Ex. 27, 4-(5-(3-(m-tolyl)-1H-pyrazol-1-yl)-2-vinylpyrazolo[1,5-a]pyrimidin-7-yl)morpholine], the inhibition at 0.05 µM at PIKFYVE [1] fell in the range of 80 to 100%.

Consider `Cc1cccc(-c2ccn(-c3cc(N4CCOCC4)n4nc(C5=CCNCC5)cc4n3)n2)c1` [Ex. 28, 4-(2-(1,2,3,6-tetrahydropyridin-4-yl)-5-(3-(m-tolyl)-1H-pyrazol-1-yl)pyrazolo[1,5-a]pyrimidin-7-yl)morpholine], for which the Kd on PIKFYVE [1] lay within 0.001 to 0.005 µM.

For the molecule `Cc1cccc(-c2ccn(-c3cc(N4CCOCC4)n4nc(C5=CC[N+](C)(C)CC5)cc4n3)n2)c1` [Ex. 29, 1,1-dimethyl-4-(7-morpholino-5-(3-(m-tolyl)-1H-pyrazol-1-yl)pyrazolo[1,5-a]pyrimidin-2-yl)-1,2,3,6-tetrahydropyridin-1-ium], at PIKFYVE [1] (KINOMEScan Kinase Assay), the “% Inhib. (50 nM)” value is “+++ (>80%-100%)”.
